Source: ChEMBL document CHEMBL3351501, “Inhibition of pseudolysin and thermolysin by hydroxamate-based MMP inhibitors” (Eur J Med Chem, 2015)

What was measured:
[1] = Inhibition of Bacillus thermoproteolyticus thermolysin using Mca-Arg-Pro-Pro-Gly-Phe-Ser-Ala-Phe-Lys-(Dnp)-OH as substrate after 1 hr by fluorescence assay in presence of Brij-35
Elastase [2] = molecular target: T1, Elastase (Pseudomonas aeruginosa (strain ATCC 15692 / PAO1 / 1C / PRS 101 / LMG12228), UniProt P14756); assay: Inhibition of Pseudomonas aeruginosa pseudolysin using Abz-Ala-Gly-Leu-Ala-p-nitrobenzylamide as substrate after 15 mins
Elastase [3] = molecular target: T1, Elastase; assay: Inhibition of Pseudomonas aeruginosa pseudolysin using Mca-Arg-Pro-Pro-Gly-Phe-Ser-Ala-Phe-Lys-(Dnp)-OH as substrate after 1 hr by fluorescence assay in presence of Brij-35

T1 sequence (P14756 whole entry): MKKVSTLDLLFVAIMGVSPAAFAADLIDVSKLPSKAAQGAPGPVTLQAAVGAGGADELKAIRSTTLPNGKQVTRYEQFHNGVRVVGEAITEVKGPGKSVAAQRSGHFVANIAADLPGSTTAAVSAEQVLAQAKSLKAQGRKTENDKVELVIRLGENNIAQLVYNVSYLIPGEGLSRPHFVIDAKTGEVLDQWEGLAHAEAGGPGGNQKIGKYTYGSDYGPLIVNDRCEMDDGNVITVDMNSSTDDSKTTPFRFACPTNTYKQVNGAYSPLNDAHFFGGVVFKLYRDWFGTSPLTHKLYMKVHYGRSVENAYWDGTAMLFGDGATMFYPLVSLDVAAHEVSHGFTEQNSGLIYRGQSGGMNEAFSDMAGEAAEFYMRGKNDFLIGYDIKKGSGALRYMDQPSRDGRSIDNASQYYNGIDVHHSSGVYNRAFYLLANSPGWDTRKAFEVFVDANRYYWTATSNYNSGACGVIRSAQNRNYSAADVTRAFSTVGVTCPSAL

`COc1ccc(S(=O)(=O)N(CC(=O)O)CC(=O)NCCc2ccc(S(N)(=O)=O)cc2)cc1` showed an IC50 [1] of 637 µM and an IC50 (Elastase [2]) of over 282 µM.
In the case of `COc1ccc(S(=O)(=O)N(CC(=O)NO)CC(=O)NCCc2ccc(S(N)(=O)=O)cc2)cc1`, the IC50 [1] is reported as 164 µM, the IC50 (Elastase [3]) is reported as 33 µM and the IC50 (Elastase [2]) is reported as 15 µM.
`NS(=O)(=O)c1ccc(CCNC(=O)CN(CC(=O)NO)S(=O)(=O)c2ccc(Oc3ccccc3)cc2)cc1` showed an IC50 [1] of 160 µM, an IC50 (Elastase [3]) of 276 µM and an IC50 (Elastase [2]) of 16 µM.
In the case of `NS(=O)(=O)c1ccc(CCNC(=O)CN(CC(=O)NO)S(=O)(=O)c2ccc(-c3ccccc3)cc2)cc1`, the IC50 [1] is reported as 67 µM and the IC50 (Elastase [2]) is reported as 31 µM.
`NS(=O)(=O)c1ccc(CCNC(=O)CN(CC(=O)NO)Cc2ccccc2)cc1` gave an IC50 [1] of 12 µM and an IC50 (Elastase [2]) of 0.4 µM.
With `O=C(O)CN(CC(=O)NO)Cc1ccc([N+](=O)[O-])cc1` the IC50 [1] was 755 µM and the IC50 (Elastase [2]) was 20 µM.
`O=C(O)CN(CC(=O)NO)Cc1ccc(-c2ccccc2)cc1` gave an IC50 [1] of over 1000 µM and an IC50 (Elastase [2]) of over 121 µM.
Work on `O=C(O)CN(CC(=O)NO)Cc1ccc(Oc2ccccc2)cc1` yielded an IC50 [1] of 524 µM, an IC50 (Elastase [3]) of 430 µM and an IC50 (Elastase [2]) of over 200 µM.
Compound `O=C(O)CN(CC(=O)NO)S(=O)(=O)c1ccc(-c2ccccc2)cc1` has an IC50 [1] of 440 µM, an IC50 (Elastase [3]) of 241 µM and an IC50 (Elastase [2]) of over 150 µM.
In the case of `O=C(O)CN(CC(=O)NO)NCCCN1CCN(c2ccccc2)CC1`, the IC50 [1] is reported as over 1000 µM and the IC50 (Elastase [2]) is reported as over 330 µM.
`O=C(CN(CC(=O)NCCCN1CCN(c2ccccc2)CC1)Cc1ccccc1)NO` gave an IC50 [1] of 8 µM, an IC50 (Elastase [3]) of 2.8 µM and an IC50 (Elastase [2]) of 6.7 µM.
For `O=C(O)CN(CC(=O)NO)S(=O)(=O)c1ccc(Oc2ccccc2)cc1`, the IC50 [1] was 114 µM, the IC50 (Elastase [3]) was 46 µM and the IC50 (Elastase [2]) was over 186 µM.
For `COc1ccc(S(=O)(=O)N(CC(=O)O)CC(=O)NO)cc1`, the IC50 [1] was 270 µM, the IC50 (Elastase [3]) was 153 µM and the IC50 (Elastase [2]) was 169 µM.
For `CC(C)[C@H](C(=O)NO)N(CC(=O)O)S(=O)(=O)c1ccc(Oc2ccccc2)cc1`, the IC50 [1] was over 1000 µM, the IC50 (Elastase [3]) was 336 µM and the IC50 (Elastase [2]) was 82 µM.
